Patent US20180362766A1, “Fluorogenic pH-Sensitive Dyes and Their Methods of Use” (Life Technologies Corporation, priority 2012, published 2018)

System: phagocytic J774.2 murine macrophages
Experiment: No-wash phagocytosis assay with dye-conjugated E. coli bioparticles
Assay type: cell-based
Details: E. coli bioparticles conjugated to a pH-sensitive fluorescent dye
Source text: Certain embodiments provide for a no-wash, no-quench assay for phagocytosis that is based on fluorogenic bioparticles comprising the pH-sensitive fluorescent dye compounds provided herein. Current protocols for measuring phagocytosis that use fluorescent bioparticles, require a trypan blue quenching step and several washing steps. These steps can introduce significant variability in the assay. To address this issue, provided herein is a no-wash phagocytosis kit, using E. coli bioparticles conjugated to a pH-sensitive fluorescent dye as described herein. These bioparticle conjugates are weakly fluorescent at extracellular pH. […] The pH-sensitive fluorescent bioparticles described herein may be used in plate based, as well as imaging and flow cytometry assays of phagocytosis.

C=C1[C@@H](C)[C@H]2[C@H](Cc3ccccc3)NC(=O)[C@]23[C@H](OC(C)=O)/C=C/[C@@](C)(O)C(=O)[C@@H](C)C/C=C/[C@H]3[C@@H]1O [cytochalaisin D, cytochalasin D]
inhibition of uptake of the bioparticles (phagocytosis): potently inhibited
